# Experiments:
# [1] = target: T1, Human κ-Opioid (KOP) (Homo sapiens, UniProt P41145); assay: Radioligand binding, human κ-opioid (KOP) membranes, filtration, [3H]-Diprenorphine; conditions: compound at 10 μM, [3H]-Diprenorphine
# T1 construct: purchased Perkin Elmer Biosignal
# Method in brief: (§1)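 Filtration binding on cloned human receptor membranes (1 Unit/well), [125I]-Substance P for NK1 and [3H]-Diprenorphine for KOP, 1 h at room temperature. Filters PEI-presoaked, washed with cold 50 mM Tris-HCl pH 7.4, counted by scintillation; percent inhibition calculated, reference ligand defining non-specific binding.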
# [2] = target: T2, Human μ-opioid (MOP) (Homo sapiens, UniProt P35372); assay: Radioligand binding, human μ-opioid (MOP) membranes, FlashPlate, [3H]-Naloxone; conditions: compound at 10 μM, [3H]-Naloxone
# T2 construct: purchased Perkin Elmer Biosignal
# Method in brief: (§2)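 Cloned human receptor membranes were coated onto FlashPlate wells and incubated with radioligand and compound (added from a 0.5 mM DMSO daughter plate) for 1 hour at room temperature in the dark. Scintillation counting gave percent inhibition, with DMSO defining total and reference ligand defining non-specific binding.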
# [3] = target: T3, Human Melanocortin (MC4) (Homo sapiens, UniProt P32245); assay: Radioligand binding, human melanocortin MC4 membranes, FlashPlate, [125I]-NDP-αMSH; conditions: compound at 10 μM, [125I]-NDP-αMSH
# T3 construct: purchased Perkin Elmer Biosignal
# Method in brief: as §2
# [4] = target: T4, Human δ-opioid (DOP) (Homo sapiens, UniProt P41143); assay: Radioligand binding, human δ-opioid (DOP) membranes, FlashPlate, [3H]-Bremazocine; conditions: compound at 10 μM, [3H]-Bremazocine
# T4 construct: purchased Perkin Elmer Biosignal
# Method in brief: as §2
# [5] = target: T5, Human neuropeptide Y (NPY-Y1) (Homo sapiens, UniProt P25929); assay: Radioligand binding, human neuropeptide Y NPY-Y1 membranes, FlashPlate, [125I]-PYY; conditions: compound at 10 μM, [125I]-PYY
# T5 construct: purchased Perkin Elmer Biosignal
# T5 sequence (P25929 1-384): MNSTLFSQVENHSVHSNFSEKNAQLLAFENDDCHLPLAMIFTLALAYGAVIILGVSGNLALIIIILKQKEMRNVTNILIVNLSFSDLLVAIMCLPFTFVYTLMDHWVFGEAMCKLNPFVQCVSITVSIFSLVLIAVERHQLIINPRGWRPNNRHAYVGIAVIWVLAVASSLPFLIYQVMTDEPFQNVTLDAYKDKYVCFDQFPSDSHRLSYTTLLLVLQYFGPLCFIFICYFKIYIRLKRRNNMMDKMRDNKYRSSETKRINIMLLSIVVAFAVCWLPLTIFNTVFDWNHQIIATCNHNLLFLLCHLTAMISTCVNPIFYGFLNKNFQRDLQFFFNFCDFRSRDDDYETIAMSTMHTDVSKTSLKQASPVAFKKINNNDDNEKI
# Method in brief: as §2
# [6] = target: T6, Human melanocortin (MC5) (Homo sapiens, UniProt P33032); assay: Radioligand binding, human melanocortin MC5 membranes, FlashPlate, [125I]-NDP-αMSH; conditions: compound at 10 μM, [125I]-NDP-αMSH
# T6 construct: purchased Perkin Elmer Biosignal
# Method in brief: as §2
# [7] = target: T7, Human neurokinin (NK1) (Homo sapiens, UniProt P25103); assay: Radioligand binding, human neurokinin NK1 membranes, filtration, [125I]-Substance P; conditions: compound at 10 μM, [125I]-Substance P
# T7 construct: purchased Perkin Elmer Biosignal
# Method in brief: as §1
# [8] = target: T8, Mouse urotensin (mUR2) (Mus musculus, UniProt Q8VIH9); assay: Radioligand binding, mouse urotensin mUR2 membranes, FlashPlate, [125I]-Urotensin II; conditions: compound at 10 μM, [125I]-Urotensin II
# T8 construct: purchased Perkin Elmer Biosignal
# T8 sequence (Q8VIH9 1-385): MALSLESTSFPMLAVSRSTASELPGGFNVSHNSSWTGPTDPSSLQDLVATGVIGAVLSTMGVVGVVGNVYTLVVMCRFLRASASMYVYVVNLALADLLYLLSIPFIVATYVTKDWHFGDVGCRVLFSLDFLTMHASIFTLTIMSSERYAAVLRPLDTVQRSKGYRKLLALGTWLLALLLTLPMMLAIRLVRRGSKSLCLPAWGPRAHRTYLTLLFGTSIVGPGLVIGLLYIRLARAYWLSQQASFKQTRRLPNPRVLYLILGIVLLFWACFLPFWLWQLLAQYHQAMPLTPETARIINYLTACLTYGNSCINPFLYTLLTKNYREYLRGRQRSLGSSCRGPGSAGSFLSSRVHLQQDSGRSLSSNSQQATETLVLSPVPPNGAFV
# Method in brief: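 Cloned mouse urotensin (mUR2) receptor membranes from Perkin Elmer Biosignal were immobilized in FlashPlate microplates using a proprietary coating. Each well got 19.5 μl buffer, then 0.5 μl of DMSO, reference ligand, or compound. Adding 5 μl of [125I]-Urotensin II, diluted to 5× final concentration in binding buffer, started binding. Plates were sealed with TopSeal-A and incubated 1 hour at room temperature in the dark. Wells were counted for 30 seconds each on a TopCount after a 60-second delay, and percentage inhibition was calculated.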
# [9] = target: T9, Human melanin-concentrating hormone (MCH1) (Homo sapiens, UniProt Q99705); assay: Radioligand binding, human melanin-concentrating hormone MCH1 membranes, FlashPlate, [125I]-S36057; conditions: compound at 10 μM
# T9 construct: purchased Perkin Elmer Biosignal
# Method in brief: as §2
# [10] = target: T10, Human Melanocortin (MC3) (Homo sapiens, UniProt P41968); assay: Radioligand binding, human melanocortin MC3 membranes, FlashPlate, [125I]-NDP-αMSH; conditions: compound at 10 μM, [125I]-NDP-αMSH
# T10 construct: purchased Perkin Elmer Biosignal
# Method in brief: as §2
# [11] = target: T11, Human opioid (ORL1) (Homo sapiens, UniProt P41146); assay: Radioligand binding, human opioid ORL1 membranes, FlashPlate, [125I]-Nociceptin; conditions: compound at 10 μM, [125I]-Nociceptin
# T11 construct: purchased Perkin Elmer Biosignal
# Method in brief: as §2
# T7 sequence (P25103 whole entry): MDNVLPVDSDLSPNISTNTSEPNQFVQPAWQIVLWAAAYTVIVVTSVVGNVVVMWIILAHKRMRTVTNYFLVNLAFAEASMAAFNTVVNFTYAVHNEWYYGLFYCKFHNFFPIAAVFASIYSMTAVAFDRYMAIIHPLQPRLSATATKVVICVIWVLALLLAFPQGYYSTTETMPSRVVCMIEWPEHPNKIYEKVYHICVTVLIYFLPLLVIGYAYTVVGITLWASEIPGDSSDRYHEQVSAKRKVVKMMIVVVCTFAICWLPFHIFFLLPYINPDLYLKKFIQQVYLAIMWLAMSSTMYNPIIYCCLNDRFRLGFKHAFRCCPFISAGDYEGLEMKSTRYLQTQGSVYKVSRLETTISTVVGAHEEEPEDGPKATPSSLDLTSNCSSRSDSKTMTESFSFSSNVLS
# T6 sequence (P33032 whole entry): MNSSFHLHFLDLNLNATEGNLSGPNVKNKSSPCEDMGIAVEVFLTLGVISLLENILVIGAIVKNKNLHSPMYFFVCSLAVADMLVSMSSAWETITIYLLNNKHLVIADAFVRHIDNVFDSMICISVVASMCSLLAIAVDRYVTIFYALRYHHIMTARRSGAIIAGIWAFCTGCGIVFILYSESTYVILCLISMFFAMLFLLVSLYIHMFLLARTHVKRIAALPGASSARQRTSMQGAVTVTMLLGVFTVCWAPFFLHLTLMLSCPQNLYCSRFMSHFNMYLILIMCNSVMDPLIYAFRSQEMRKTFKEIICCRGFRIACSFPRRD
# T2 sequence (P35372 whole entry): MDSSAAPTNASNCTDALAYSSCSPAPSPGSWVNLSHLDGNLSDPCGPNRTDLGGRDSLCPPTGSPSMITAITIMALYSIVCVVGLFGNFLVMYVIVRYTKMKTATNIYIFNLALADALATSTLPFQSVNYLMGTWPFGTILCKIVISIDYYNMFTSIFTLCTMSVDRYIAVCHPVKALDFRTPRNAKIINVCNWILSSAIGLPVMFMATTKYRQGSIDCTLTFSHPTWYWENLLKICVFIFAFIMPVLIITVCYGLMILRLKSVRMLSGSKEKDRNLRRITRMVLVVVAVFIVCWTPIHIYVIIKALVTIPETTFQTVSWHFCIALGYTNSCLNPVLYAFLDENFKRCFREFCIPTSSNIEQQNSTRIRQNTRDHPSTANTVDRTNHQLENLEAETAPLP
# T4 sequence (P41143 whole entry): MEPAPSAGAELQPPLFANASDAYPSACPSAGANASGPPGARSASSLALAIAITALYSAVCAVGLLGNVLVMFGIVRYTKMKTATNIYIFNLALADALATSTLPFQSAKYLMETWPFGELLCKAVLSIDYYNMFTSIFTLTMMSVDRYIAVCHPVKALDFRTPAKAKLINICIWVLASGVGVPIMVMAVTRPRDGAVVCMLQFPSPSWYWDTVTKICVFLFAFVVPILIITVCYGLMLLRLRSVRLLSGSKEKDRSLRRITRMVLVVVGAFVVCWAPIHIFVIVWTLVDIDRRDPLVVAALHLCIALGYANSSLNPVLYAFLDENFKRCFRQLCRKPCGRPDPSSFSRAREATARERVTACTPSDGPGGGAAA
# T10 sequence (P41968 whole entry): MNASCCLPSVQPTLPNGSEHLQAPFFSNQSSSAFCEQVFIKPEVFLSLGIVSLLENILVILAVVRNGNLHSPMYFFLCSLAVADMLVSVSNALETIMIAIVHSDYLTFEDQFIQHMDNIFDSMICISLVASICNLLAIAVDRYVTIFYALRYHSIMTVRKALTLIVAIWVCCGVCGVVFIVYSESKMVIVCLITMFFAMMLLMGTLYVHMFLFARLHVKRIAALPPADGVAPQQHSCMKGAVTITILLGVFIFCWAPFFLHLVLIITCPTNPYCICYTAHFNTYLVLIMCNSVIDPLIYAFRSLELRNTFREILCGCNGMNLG
# T3 sequence (P32245 whole entry): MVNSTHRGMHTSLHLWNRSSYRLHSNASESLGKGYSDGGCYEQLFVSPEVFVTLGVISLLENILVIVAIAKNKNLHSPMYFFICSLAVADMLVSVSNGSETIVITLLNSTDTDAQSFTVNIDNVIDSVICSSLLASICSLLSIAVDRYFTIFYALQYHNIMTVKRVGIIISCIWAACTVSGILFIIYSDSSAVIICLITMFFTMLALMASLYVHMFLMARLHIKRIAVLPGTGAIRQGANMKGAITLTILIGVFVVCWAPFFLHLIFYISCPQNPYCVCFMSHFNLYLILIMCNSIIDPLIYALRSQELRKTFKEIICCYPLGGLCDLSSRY
# T11 sequence (P41146 whole entry): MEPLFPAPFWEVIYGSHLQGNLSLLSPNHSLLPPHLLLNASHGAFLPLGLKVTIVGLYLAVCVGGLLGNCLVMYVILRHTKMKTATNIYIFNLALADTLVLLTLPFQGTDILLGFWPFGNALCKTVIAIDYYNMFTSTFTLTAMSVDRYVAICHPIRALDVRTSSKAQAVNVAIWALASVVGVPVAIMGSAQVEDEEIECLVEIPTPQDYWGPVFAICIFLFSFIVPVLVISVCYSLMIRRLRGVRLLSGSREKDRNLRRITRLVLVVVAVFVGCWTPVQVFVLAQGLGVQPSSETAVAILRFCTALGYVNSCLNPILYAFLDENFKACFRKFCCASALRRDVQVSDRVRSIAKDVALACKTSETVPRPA
# T9 sequence (Q99705 whole entry): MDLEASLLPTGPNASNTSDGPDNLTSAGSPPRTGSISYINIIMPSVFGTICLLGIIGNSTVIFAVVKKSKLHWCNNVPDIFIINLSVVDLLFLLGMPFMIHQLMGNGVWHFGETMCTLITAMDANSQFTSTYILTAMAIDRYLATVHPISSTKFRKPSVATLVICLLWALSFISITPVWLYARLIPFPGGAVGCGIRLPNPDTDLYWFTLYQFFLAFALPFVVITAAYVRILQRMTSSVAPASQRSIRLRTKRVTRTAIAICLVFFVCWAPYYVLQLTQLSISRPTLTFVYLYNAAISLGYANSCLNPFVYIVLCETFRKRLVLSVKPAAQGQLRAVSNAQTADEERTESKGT
# T1 sequence (P41145 whole entry): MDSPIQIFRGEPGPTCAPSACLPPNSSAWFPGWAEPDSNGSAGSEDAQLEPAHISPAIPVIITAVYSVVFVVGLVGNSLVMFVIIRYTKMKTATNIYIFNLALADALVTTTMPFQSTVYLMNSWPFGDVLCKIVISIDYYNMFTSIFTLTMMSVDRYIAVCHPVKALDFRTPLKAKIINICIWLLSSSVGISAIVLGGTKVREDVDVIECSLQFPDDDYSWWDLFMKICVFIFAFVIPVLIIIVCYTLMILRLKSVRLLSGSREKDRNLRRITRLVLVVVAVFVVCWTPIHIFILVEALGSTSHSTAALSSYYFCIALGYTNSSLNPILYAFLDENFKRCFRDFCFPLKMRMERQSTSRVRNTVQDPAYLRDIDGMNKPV
SMILES,"A7: inhibition of radioligand binding, human μ-opioid (MOP) [2]","A4: inhibition of radioligand binding, human melanocortin (MC4) [3]","A1: inhibition of radioligand binding, human δ-opioid (DOP) [4]","A9: inhibition of radioligand binding, human neuropeptide Y (NPY-Y1) [5]","A5: inhibition of radioligand binding, human melanocortin (MC5) [6]","A8: inhibition of radioligand binding, human neurokinin (NK1) [7]","A11: inhibition of radioligand binding, mouse urotensin (mUR2) [8]","A6: inhibition of radioligand binding, human melanin-concentrating hormone (MCH1) ([9]; [125I]-S36057)","A3: inhibition of radioligand binding, human melanocortin (MC3) [10]","A10: inhibition of radioligand binding, human opioid (ORL1) [11]","A2: inhibition of radioligand binding, human κ-opioid (KOP) [1]",other results
CO[C@H]1[C@H](O)[C@@H](COCc2ccccc2)OC(OCc2ccc(Cl)cc2)[C@@H]1NC(=O)CCNC(=N)N (stereo partly shown) [compound 102],–,–,–,–,–,–,–,–,–,–,–,"A2 radioligand binding, percentage inhibition [1]: − (“−” indicates less than 50% inhibition at 10 μM); A7 radioligand binding, percentage inhibition [2]: − (“−” indicates less than 50% inhibition at 10 μM); A4 radioligand binding, percentage inhibition [3]: − (“−” indicates less than 50% inhibition at 10 μM); A1 radioligand binding, percentage inhibition [4]: − (“−” indicates less than 50% inhibition at 10 μM); A9 radioligand binding, percentage inhibition [5]: − (“−” indicates less than 50% inhibition at 10 μM); A5 radioligand binding, percentage inhibition [6]: + (“+” indicates greater than 50% inhibition at 10 μM); A8 radioligand binding, percentage inhibition [7]: − (“−” indicates less than 50% inhibition at 10 μM); A11 radioligand binding, percentage inhibition [8]: − (“−” indicates less than 50% inhibition at 10 μM); A6 radioligand binding, percentage inhibition ([9]; [125I]-S36057): − (“−” indicates less than 50% inhibition at 10 μM); A3 radioligand binding, percentage inhibition [10]: − (“−” indicates less than 50% inhibition at 10 μM); A10 radioligand binding, percentage inhibition [11]: − (“−” indicates less than 50% inhibition at 10 μM)"
"NCCCC(=O)NC1C(OCc2ccc3ccccc3c2)OC(COCc2ccccc2)C(O)C1OCc1ccccc1 (single isomer, unassigned) [compound 467]",–,–,–,–,–,–,–,–,–,–,–,"A2: inhibition of radioligand binding ([1]; human KOP membranes): − (“−” indicates less than 50% inhibition at 10 μM); A7: inhibition of radioligand binding ([2]; human MOP membranes, 10 µM): − (“−” indicates less than 50% inhibition at 10 μM); A4: inhibition of radioligand binding ([3]; human MC4 membranes, 10 µM): − (“−” indicates less than 50% inhibition at 10 μM); A1: inhibition of radioligand binding ([4]; human DOP membranes): − (“−” indicates less than 50% inhibition at 10 μM); A9: inhibition of radioligand binding ([5]; human NPY-Y1 membranes): − (“−” indicates less than 50% inhibition at 10 μM); A5: inhibition of radioligand binding ([6]; human MC5 membranes): − (“−” indicates less than 50% inhibition at 10 μM); A8: inhibition of radioligand binding ([7]; human NK1 membranes): + (“+” indicates greater than 50% inhibition at 10 μM); A11: inhibition of radioligand binding ([8]; mouse mUR2 membranes): − (“−” indicates less than 50% inhibition at 10 μM); A6: inhibition of radioligand binding ([9]; [125I]-S36057, human MCH1 membranes): − (“−” indicates less than 50% inhibition at 10 μM); A3: inhibition of radioligand binding ([10]; human MC3 membranes): − (“−” indicates less than 50% inhibition at 10 μM); A10: inhibition of radioligand binding ([11]; human ORL1 membranes, 10 µM): − (“−” indicates less than 50% inhibition at 10 μM)"
"NCCC(=O)NC1C(OCc2ccc(Cl)cc2)OC(COCc2ccc(Cl)cc2)C(O)C1OCc1ccc2ccccc2c1 (single isomer, unassigned) [compound 481]",− (“−” indicates less than 50% inhibition at 10 μM),+ (“+” indicates greater than 50% inhibition at 10 μM),− (“−” indicates less than 50% inhibition at 10 μM),− (“−” indicates less than 50% inhibition at 10 μM),+ (“+” indicates greater than 50% inhibition at 10 μM),+ (“+” indicates greater than 50% inhibition at 10 μM),− (“−” indicates less than 50% inhibition at 10 μM),+ (“+” indicates greater than 50% inhibition at 10 μM),+ (“+” indicates greater than 50% inhibition at 10 μM),+ (“+” indicates greater than 50% inhibition at 10 μM),–,"A2: inhibition of radioligand binding, human κ-opioid (KOP) ([1]; 10 µM): + (“+” indicates greater than 50% inhibition at 10 μM)"
"COC[C@H]1OC(OCc2ccc(Cl)cc2)[C@H](NC(=O)CCCN)[C@@H](OCc2ccc3ccccc3c2)[C@@H]1O (single isomer, unassigned) [compound 343]",− (“−” indicates less than 50% inhibition at 10 μM),− (“−” indicates less than 50% inhibition at 10 μM),− (“−” indicates less than 50% inhibition at 10 μM),− (“−” indicates less than 50% inhibition at 10 μM),− (“−” indicates less than 50% inhibition at 10 μM),+ (“+” indicates greater than 50% inhibition at 10 μM),− (“−” indicates less than 50% inhibition at 10 μM),− (“−” indicates less than 50% inhibition at 10 μM),− (“−” indicates less than 50% inhibition at 10 μM),− (“−” indicates less than 50% inhibition at 10 μM),− (“−” indicates less than 50% inhibition at 10 μM),–
CSC1O[C@H](COCc2ccccc2)[C@@H](O)[C@@H](OCc2ccc(-c3ccccc3)cc2)[C@H]1NC(=O)CCNC(=N)N (stereo partly shown) [compound 286],− (“−” indicates less than 50% inhibition at 10 μM),− (“−” indicates less than 50% inhibition at 10 μM),− (“−” indicates less than 50% inhibition at 10 μM),− (“−” indicates less than 50% inhibition at 10 μM),+ (“+” indicates greater than 50% inhibition at 10 μM),+ (“+” indicates greater than 50% inhibition at 10 μM),− (“−” indicates less than 50% inhibition at 10 μM),− (“−” indicates less than 50% inhibition at 10 μM),− (“−” indicates less than 50% inhibition at 10 μM),− (“−” indicates less than 50% inhibition at 10 μM),− (“−” indicates less than 50% inhibition at 10 μM),–

# Reference: US20080009418A1, “Selective Inhibitors” (Alchemia LTD., priority 2004, published 2008)
